In one experiment the target is EGFR L858R/C797S (Homo sapiens, UniProt P00533, C797S/L858R). The experiment in a line: Biochemical EGFR kinase assay (Lance Ultra TR-FRET), double mutant L858R/C797S. In a few lines: (§1)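 Kinase activity is measured by TR-FRET phosphopeptide detection. Compounds span 0.003 μM to 10 μM; the 1 h reaction at room temperature is quenched with EDTA, then labelled antibody (2 nM) is incubated 60 min before reading.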

Another experiment deals with EGFR del19/T790M/C797S (Homo sapiens, UniProt P00533, C797S/DEL746-750/T790M). Briefly: Biochemical EGFR kinase assay (Lance Ultra TR-FRET), triple mutant del19/T790M/C797S. The essentials:
as §1
In general terms: TR-FRET usually uses a lanthanide donor and a delayed reading to cut background.

Another experiment deals with EGFR L858R/T790M/C797S (Homo sapiens, UniProt P00533, C797S/L858R/T790M). Briefly: Biochemical EGFR kinase assay (Lance Ultra TR-FRET), triple mutant L858R/T790M/C797S. The essentials:
as §1

In the next experiment the target is EGFR wildtype (Homo sapiens, UniProt P00533). The experiment in a line: Biochemical EGFR kinase assay (Lance Ultra TR-FRET), wildtype. The essentials:
as §1

A further experiment concerns the target EGFR del19/C797S (Homo sapiens, UniProt P00533, C797S/DEL746-750). Briefly: Biochemical EGFR kinase assay (Lance Ultra TR-FRET), double mutant del19/C797S. In a few lines:
as §1

The mark [1] stands for this setting: IC50 del19/T790M/C797S, 100 μM ATP.
The mark [2] stands for this setting: IC50 L858R/T790M/C797S, 100 μM ATP.
Where [3] appears, read: ATP at Km, read-out: IC50 WT, Km ATP.
Setting [4] is: ATP at Km, read-out: IC50 L858R/C797S, Km ATP.
The mark [5] stands for this setting: ATP at Km, read-out: IC50 del19/T790M/C797S, Km ATP.
Setting [6] is: ATP at Km, read-out: IC50 L858R/T790M/C797S, Km ATP.
Where [7] appears, read: ATP at Km, read-out: IC50 del19/C797S, Km ATP.

Read-outs that look alike come from different tables or passages of the source.

The source of these data is patent US12258328B2, “6-membered heteroaryl-containing aminopyridine compounds as EGFR inhibitors” (YUHAN CORPORATION, priority 2021, dated 2025).

Sequence of EGFR del19/T790M/C797S (P00533 with tags, fused parts or gaps DEL746-750/T790M/C797S): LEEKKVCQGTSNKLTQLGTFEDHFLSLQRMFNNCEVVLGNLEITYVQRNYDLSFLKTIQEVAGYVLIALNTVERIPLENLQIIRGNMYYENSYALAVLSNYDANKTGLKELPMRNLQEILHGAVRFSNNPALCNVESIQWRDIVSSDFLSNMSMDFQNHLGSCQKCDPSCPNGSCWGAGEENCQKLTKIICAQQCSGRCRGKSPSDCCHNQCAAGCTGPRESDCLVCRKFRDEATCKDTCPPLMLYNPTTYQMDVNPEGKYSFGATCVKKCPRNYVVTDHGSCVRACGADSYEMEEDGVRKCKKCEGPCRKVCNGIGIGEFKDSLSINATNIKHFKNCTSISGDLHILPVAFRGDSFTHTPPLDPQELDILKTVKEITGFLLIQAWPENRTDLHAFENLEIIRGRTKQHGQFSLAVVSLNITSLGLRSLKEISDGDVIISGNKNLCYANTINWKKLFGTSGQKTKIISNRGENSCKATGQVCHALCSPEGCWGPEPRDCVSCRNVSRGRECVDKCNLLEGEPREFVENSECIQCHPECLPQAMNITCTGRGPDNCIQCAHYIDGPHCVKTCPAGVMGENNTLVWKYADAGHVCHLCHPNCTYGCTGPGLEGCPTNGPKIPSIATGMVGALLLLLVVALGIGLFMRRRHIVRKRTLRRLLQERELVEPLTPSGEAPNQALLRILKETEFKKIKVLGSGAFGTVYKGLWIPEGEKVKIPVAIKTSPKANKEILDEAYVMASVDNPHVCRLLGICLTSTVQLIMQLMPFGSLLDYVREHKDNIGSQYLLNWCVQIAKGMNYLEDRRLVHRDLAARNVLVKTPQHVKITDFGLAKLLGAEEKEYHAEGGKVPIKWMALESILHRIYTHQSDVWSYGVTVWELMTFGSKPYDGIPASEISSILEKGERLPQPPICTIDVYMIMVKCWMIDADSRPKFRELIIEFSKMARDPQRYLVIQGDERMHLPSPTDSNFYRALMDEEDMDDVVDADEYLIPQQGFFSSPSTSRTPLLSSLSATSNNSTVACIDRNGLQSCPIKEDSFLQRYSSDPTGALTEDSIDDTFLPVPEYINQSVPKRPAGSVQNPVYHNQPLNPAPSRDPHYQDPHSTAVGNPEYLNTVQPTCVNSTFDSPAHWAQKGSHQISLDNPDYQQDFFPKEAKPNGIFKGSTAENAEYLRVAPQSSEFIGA
Sequence of EGFR del19/C797S (P00533 with tags, fused parts or gaps DEL746-750/C797S): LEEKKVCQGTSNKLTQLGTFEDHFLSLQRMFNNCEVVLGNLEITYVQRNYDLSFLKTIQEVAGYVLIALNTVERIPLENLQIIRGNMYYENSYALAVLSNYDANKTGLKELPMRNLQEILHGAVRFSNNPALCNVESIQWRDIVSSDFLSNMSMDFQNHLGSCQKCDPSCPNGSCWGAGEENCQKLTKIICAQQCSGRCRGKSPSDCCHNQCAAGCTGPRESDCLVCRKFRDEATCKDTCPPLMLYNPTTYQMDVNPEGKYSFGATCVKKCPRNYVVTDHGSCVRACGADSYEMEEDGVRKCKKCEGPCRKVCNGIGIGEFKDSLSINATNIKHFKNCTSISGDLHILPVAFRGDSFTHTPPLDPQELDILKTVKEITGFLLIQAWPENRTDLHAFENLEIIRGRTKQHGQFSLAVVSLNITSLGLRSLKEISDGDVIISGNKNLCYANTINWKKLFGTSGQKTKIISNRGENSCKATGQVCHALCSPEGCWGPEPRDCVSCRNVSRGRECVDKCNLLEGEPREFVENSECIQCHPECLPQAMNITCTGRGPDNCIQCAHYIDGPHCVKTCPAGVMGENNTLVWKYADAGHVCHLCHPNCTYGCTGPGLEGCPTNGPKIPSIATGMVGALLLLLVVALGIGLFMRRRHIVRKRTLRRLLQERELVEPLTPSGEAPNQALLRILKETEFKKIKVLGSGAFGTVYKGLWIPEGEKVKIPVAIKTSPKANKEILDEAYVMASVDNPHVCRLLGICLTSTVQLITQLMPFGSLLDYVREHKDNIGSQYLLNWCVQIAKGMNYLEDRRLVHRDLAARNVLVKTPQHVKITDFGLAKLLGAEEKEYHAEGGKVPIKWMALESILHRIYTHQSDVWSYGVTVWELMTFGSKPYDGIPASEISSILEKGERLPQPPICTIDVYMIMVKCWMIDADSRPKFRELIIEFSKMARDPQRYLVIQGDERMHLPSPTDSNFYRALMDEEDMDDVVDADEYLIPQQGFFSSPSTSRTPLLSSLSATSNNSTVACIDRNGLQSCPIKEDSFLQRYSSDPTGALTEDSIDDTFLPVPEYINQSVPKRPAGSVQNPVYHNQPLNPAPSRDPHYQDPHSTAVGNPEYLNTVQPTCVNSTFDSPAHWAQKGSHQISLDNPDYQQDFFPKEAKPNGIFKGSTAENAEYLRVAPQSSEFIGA
Sequence of EGFR L858R/T790M/C797S (P00533 25-1210 T790M/C797S/L858R): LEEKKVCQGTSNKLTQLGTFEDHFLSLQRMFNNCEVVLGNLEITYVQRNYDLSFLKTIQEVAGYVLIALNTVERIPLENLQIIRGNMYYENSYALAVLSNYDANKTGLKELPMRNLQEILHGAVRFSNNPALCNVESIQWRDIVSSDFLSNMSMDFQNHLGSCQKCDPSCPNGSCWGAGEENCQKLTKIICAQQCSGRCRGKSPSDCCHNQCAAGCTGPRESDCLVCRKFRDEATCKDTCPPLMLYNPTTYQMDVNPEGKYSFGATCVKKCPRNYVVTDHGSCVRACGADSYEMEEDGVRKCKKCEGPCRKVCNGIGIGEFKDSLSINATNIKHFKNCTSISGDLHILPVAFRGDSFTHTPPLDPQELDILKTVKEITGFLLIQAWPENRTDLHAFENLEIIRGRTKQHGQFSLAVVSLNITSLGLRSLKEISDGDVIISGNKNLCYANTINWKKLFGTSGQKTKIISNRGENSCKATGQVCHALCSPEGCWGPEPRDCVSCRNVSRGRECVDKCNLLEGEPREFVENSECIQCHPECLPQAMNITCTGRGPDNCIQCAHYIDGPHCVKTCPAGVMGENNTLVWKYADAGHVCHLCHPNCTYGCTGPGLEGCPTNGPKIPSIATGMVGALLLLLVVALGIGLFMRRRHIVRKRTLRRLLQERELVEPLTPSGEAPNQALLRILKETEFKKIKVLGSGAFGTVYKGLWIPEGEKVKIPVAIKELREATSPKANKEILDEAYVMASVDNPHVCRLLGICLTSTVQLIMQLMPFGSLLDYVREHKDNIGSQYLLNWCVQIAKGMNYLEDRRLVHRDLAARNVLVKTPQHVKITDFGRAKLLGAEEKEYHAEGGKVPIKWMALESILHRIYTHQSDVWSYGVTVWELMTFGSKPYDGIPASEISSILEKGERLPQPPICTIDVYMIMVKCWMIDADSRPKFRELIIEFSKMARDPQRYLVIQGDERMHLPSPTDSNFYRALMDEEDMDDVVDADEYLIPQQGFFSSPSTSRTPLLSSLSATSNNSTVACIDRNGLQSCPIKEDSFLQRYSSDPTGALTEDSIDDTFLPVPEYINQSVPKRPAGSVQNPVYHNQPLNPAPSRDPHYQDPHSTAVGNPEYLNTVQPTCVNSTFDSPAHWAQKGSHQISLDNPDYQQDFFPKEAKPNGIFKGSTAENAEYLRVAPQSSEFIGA
Sequence of EGFR wildtype (P00533 25-1210): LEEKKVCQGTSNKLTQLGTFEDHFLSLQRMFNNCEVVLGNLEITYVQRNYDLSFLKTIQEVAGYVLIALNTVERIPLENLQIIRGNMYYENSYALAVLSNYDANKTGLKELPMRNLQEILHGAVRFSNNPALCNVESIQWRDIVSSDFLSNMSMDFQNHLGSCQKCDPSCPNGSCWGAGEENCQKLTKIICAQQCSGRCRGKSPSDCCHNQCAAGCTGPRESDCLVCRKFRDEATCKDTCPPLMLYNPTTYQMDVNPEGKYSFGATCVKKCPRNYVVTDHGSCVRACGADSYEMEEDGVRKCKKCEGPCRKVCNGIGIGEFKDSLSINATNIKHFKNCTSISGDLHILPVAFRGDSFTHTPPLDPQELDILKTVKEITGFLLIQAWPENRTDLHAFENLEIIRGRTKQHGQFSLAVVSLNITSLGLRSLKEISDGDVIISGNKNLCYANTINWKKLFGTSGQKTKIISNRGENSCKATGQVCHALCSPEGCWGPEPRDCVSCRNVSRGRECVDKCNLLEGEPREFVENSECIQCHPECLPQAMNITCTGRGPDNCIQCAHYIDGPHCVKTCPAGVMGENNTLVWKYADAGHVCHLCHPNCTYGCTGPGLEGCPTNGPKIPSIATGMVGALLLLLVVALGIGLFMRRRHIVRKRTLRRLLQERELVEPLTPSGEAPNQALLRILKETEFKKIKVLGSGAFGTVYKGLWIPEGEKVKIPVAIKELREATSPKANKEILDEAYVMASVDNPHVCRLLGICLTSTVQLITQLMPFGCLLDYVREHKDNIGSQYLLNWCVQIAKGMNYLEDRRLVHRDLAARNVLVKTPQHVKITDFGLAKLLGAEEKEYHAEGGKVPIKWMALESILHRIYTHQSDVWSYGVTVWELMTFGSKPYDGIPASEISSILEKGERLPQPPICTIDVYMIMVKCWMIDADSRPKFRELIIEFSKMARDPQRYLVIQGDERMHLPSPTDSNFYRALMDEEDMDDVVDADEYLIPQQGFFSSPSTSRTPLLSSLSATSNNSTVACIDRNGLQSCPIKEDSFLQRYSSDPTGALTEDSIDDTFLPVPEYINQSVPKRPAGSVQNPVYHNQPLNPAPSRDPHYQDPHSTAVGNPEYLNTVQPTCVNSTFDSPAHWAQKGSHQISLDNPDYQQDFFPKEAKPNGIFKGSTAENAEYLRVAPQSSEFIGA

For `CC(C)(O)[C@H]1CC[C@@H](Nc2cc(Nc3ccnc(-c4cnn(S(=O)(=O)C5CC5)c4)n3)ncc2-c2cccc(CC(F)(F)F)n2)CC1` [Example 247, 2-((1s,4s)-4-((6′-((2-(1-(Cyclopropylsulfonyl)-1H-pyrazol-4-yl)pyrimidin-4-yl)amino)-6-(2,2,2-trifluoroethyl)-[2,3′-bipyridin]-4′-yl)amino)cyclohexyl)propan-2-ol], the IC50 was 51.1 nM at EGFR L858R/C797S (IC50 L858R/C797S, 100 μM ATP); 14.7 nM against EGFR del19/T790M/C797S (setting [1]); 2.6 nM at EGFR L858R/T790M/C797S (setting [2]); 111 nM on EGFR wildtype (setting [3]); over 10000 nM against EGFR wildtype (IC50 WT, 100 μM ATP); 80.6 nM against EGFR del19/C797S (IC50 del19/C797S, 100 μM ATP).
Turning to `CN(C)C[C@H]1CC[C@@H](Nc2cc(Nc3ccnc(-c4cnn(S(=O)(=O)C5CC5)c4)n3)ncc2-c2cccc(CC(F)(F)F)n2)CC1` [Example 248, N^6′-(2-(1-(Cyclopropylsulfonyl)-1H-pyrazol-4-yl)pyrimidin-4-yl)-N^4′-((1s,4s)-4-((dimethylamino)methyl)cyclohexyl)-6-(2,2,2-trifluoroethyl)-[2,3′-bipyridine]-4′,6′-diamine], the IC50 on EGFR L858R/C797S (setting [4]) was 1.8 nM; against EGFR L858R/C797S (IC50 L858R/C797S, 100 μM ATP) it was 9.7 nM; at EGFR del19/T790M/C797S (setting [5]), 0.4 nM; at EGFR del19/T790M/C797S (setting [1]), 0.4 nM; at EGFR L858R/T790M/C797S (setting [6]), 0.1 nM; against EGFR L858R/T790M/C797S (setting [2]) it was 0.3 nM. Further, the IC50 came out at 4.6 nM at EGFR wildtype (setting [3]); 7620 nM at EGFR wildtype (IC50 WT, 100 μM ATP); 2 nM on EGFR del19/C797S (setting [7]); 5 nM against EGFR del19/C797S (IC50 del19/C797S, 100 μM ATP).
On to `CC(C)Nc1cc(Nc2ccnc(-c3cnn(S(=O)(=O)C4CC4)c3)n2)ncc1-c1ccc(OC2CCN(C)CC2)cn1` [Example 249, N^6′-(2-(1-(Cyclopropylsulfonyl)-1H-pyrazol-4-yl)pyrimidin-4-yl)-N^4′-isopropyl-5-((1-methylpiperidin-4-yl)oxy)-[2,3′-bipyridine]-4′,6′-diamine], for which the IC50 is 0.2 nM at EGFR L858R/C797S (setting [4]); 0.5 nM at EGFR del19/T790M/C797S (setting [5]); 0.2 nM at EGFR L858R/T790M/C797S (setting [6]); 2.8 nM at EGFR wildtype (setting [3]); 0.4 nM at EGFR del19/C797S (setting [7]).
For the compound `CN1CCC(Oc2ccc(-c3cnc(Nc4ccnc(-c5cnn(S(=O)(=O)C6CC6)c5)n4)cc3N[C@H]3CC[C@@](C)(O)CC3)nc2)CC1` [Example 250, (1s,4s)-4-((6′-((2-(1-(Cyclopropylsulfonyl)-1H-pyrazol-4-yl)pyrimidin-4-yl)amino)-5-((1-methylpiperidin-4-yl)oxy)-[2,3′-bipyridin]-4′-yl)amino)-1-methylcyclohexan-1-ol], the IC50 at EGFR L858R/C797S (setting [4]) amounted to 0.4 nM; on EGFR del19/T790M/C797S (setting [5]), 0.4 nM; on EGFR L858R/T790M/C797S (setting [6]) it was 0.2 nM; at EGFR wildtype (setting [3]), 0.3 nM; on EGFR del19/C797S (setting [7]) it was 0.4 nM.
Take `CN1CCC(Oc2ccc(-c3cnc(Nc4ccnc(-c5cnn(S(=O)(=O)C6CC6)c5)n4)cc3N[C@H]3CC[C@@H](CO)CC3)nc2)CC1` [Example 251, ((1s,4s)-4-((6′-((2-(1-(Cyclopropylsulfonyl)-1H-pyrazol-4-yl)pyrimidin-4-yl)amino)-5-((1-methylpiperidin-4-yl)oxy)-[2,3′-bipyridin]-4′-yl)amino)cyclohexyl)methanol]: the IC50 at EGFR L858R/C797S (setting [4]) came out at 0.3 nM; at EGFR del19/T790M/C797S (setting [5]) it was 0.5 nM; on EGFR L858R/T790M/C797S (setting [6]) it was 0.1 nM; on EGFR wildtype (setting [3]), 0.2 nM; on EGFR del19/C797S (setting [7]), 0.2 nM.
Turning to `CN1CCC(Oc2ccc(-c3cnc(Nc4ccnc(-c5cnn(S(=O)(=O)C6CC6)c5)n4)cc3N[C@H]3CCC[C@H](CO)C3)nc2)CC1` [Example 253, ((1S,3S)-3-((6′-((2-(1-(Cyclopropylsulfonyl)-1H-pyrazol-4-yl)pyrimidin-4-yl)amino)-5-((1-methylpiperidin-4-yl)oxy)-[2,3′-bipyridin]-4′-yl)amino)cyclohexyl)methanol], the IC50 is 0.2 nM at EGFR L858R/C797S (setting [4]); 0.7 nM on EGFR del19/T790M/C797S (setting [5]); 0.4 nM on EGFR L858R/T790M/C797S (setting [6]); 1 nM on EGFR wildtype (setting [3]); 0.4 nM at EGFR del19/C797S (setting [7]).
Consider `CN1CCC(Oc2ccc(-c3cnc(Nc4ccnc(-c5cnn(S(=O)(=O)C6CC6)c5)n4)cc3NC3CCC(F)CC3)nc2)CC1` (stereo not drawn) [Example 254, N^6′-(2-(1-(Cyclopropylsulfonyl)-1H-pyrazol-4-yl)pyrimidin-4-yl)-N^4′-(4-fluorocyclohexyl)-5-((1-methylpiperidin-4-yl)oxy)-[2,3′-bipyridine]-4′,6′-diamine], for which the IC50 was found to be 0.4 nM at EGFR L858R/C797S (setting [4]); 0.04 nM on EGFR del19/T790M/C797S (setting [5]); 0.02 nM on EGFR L858R/T790M/C797S (setting [6]); 0.7 nM on EGFR wildtype (setting [3]); 0.1 nM on EGFR del19/C797S (setting [7]).
In the same order, the values of `CN1CCC(Oc2ccc(-c3cnc(Nc4ccnc(-c5cnn(S(=O)(=O)C6CC6)c5)n4)cc3NC3CCC(F)(F)CC3)nc2)CC1` [Example 255, N^6′-(2-(1-(Cyclopropylsulfonyl)-1H-pyrazol-4-yl)pyrimidin-4-yl)-N^4′-(4,4-difluorocyclohexyl)-5-((1-methylpiperidin-4-yl)oxy)-[2,3′-bipyridine]-4′,6′-diamine] are 0.02 nM, 0.1 nM, 0.03 nM, 1.9 nM and 0.5 nM.
In the same order, the values of `CN1CCC(Oc2ccc(-c3cnc(Nc4ccnc(-c5cnn(S(=O)(=O)C6CC6)c5)n4)cc3NC3CCN(CCF)CC3)nc2)CC1` [Example 256, N^6′-(2-(1-(Cyclopropylsulfonyl)-1H-pyrazol-4-yl)pyrimidin-4-yl)-N^4′-(1-(2-fluoroethyl)piperidin-4-yl)-5-((1-methylpiperidin-4-yl)oxy)-[2,3′-bipyridine]-4′,6′-diamine] are 0.6 nM, 0.1 nM, 0.1 nM, 61.6 nM and 3.8 nM.
In the same order, the values of `CN1CCC(Oc2ccc(-c3cnc(Nc4ccnc(-c5cnn(S(=O)(=O)C6CC6)c5)n4)cc3NC3CCCN(CCF)C3)nc2)CC1` (stereo not drawn) [Example 257, N^6′-(2-(1-(Cyclopropylsulfonyl)-1H-pyrazol-4-yl)pyrimidin-4-yl)-N^4′-(1-(2-fluoroethyl)piperidin-3-yl)-5-((1-methylpiperidin-4-yl)oxy)-[2,3′-bipyridine]-4′,6′-diamine] are 0.4 nM, 0.4 nM, 0.2 nM, 7.4 nM and 1 nM.
In the case of `CN1CCC(Oc2ccc(-c3cnc(Nc4ccnc(-c5cnn(S(=O)(=O)C6CC6)c5)n4)cc3NC3CCN(CC(F)F)CC3)nc2)CC1` [Example 258, N^6′-(2-(1-(Cyclopropylsulfonyl)-1H-pyrazol-4-yl)pyrimidin-4-yl)-N^4′-(1-(2,2-difluoroethyl)piperidin-4-yl)-5-((1-methylpiperidin-4-yl)oxy)-[2,3′-bipyridine]-4′,6′-diamine], the IC50 on EGFR L858R/C797S (setting [4]) came to 0.1 nM; at EGFR del19/T790M/C797S (setting [5]), 0.2 nM; on EGFR L858R/T790M/C797S (setting [6]), 0.1 nM; on EGFR wildtype (setting [3]), 14.1 nM; on EGFR del19/C797S (setting [7]), 0.7 nM.
Consider `CN1CCC(Oc2ccc(-c3cnc(Nc4ccnc(-c5cnn(S(=O)(=O)C6CC6)c5)n4)cc3NC3CCC(F)(CO)CC3)nc2)CC1` (stereo not drawn) [Example 259, (4-((6′-((2-(1-(Cyclopropylsulfonyl)-1H-pyrazol-4-yl)pyrimidin-4-yl)amino)-5-((1-methylpiperidin-4-yl)oxy)-[2,3′-bipyridin]-4′-yl)amino)-1-fluorocyclohexyl)methanol], for which the IC50 on EGFR L858R/C797S (setting [4]) was determined as 0.2 nM; on EGFR del19/T790M/C797S (setting [5]), 1 nM; at EGFR L858R/T790M/C797S (setting [6]), 0.4 nM; on EGFR wildtype (setting [3]), 9 nM; at EGFR del19/C797S (setting [7]), 1.9 nM.
